In patent US20070105931A1, “Methods and compositions for inhibiting the proliferation of prostate cancer cells” (Mayo Foundation for Medical Education and Research, priority 2003, published 2007):
pIC50: −log10 of the molar value.

Assays:
LNCaP cells = experiment: Growth response (MTS cell proliferation assay), LNCaP; format: cell-based, human; conditions: MTS assay 6 days after treatment
Protocol: (§1) Human prostate cancer cell lines LNCaP (American Type Culture Collection, Manassas, Va.) and LAPC-4 (kindly provided by Dr. Charles L. Sawyers; Zhu et al., 1999, Endocrinology, 140:5451-4) were maintained in RPMI 1640 (Mediatech, Hercules, Calif.) containing 5% FBS (Biofluids, Rockville, Md.) at 37° C. and 5% CO2. To avoid potential interference of existing steroids in FBS, the media were first replaced by serum-free RPMI 1640 for 24 h. Cells were then cultured in RPMI 1640 with 5% charcoalstripped FBS supplemented with or without 1 nM Mib (New England Nuclear, Boston, Mass.), a nomnetabolizable, synthetic androgen.
(§2) Cells were plated in 24-well plates at 2×10^4 cells/well. […] MTS assay (Promega, Madison, Wis.) was performed to determine cell proliferation 6 days after the treatment. To measure secreted PSA and hK2 levels, 400 μl of spent medium from cells treated for 6 days were collected. PSA and hK2 proteins levels were determined using specific immunoassays (Mayo Immunochemical Core Facility). These measurements were used to the calculate 50% inhibitory concentration (IC50) of each of the NSAIDs.

PSA [1] = experiment: Secreted PSA protein level (immunoassay), LAPC-4; format: cell-based, human; conditions: LAPC-4 cells, secreted PSA in spent medium, treated 6 days
Protocol: (§3) FIG. 1 is a graph showing the effects of NSAIDs on the expression of PSA and hK2 proteins in prostate cancer cells ±1 nM Mib. […] PSA and hK2 values were normalized to growth response measured by a 3-(4,5-dimethylthiazol-2-yl)-2,5-diphenyltetrazolium bromide assay and expressed as a percentage of that group treated with Mib only. Error bars indicate the SE of four separate experiments.
as §1, §2

hK2 [2] = experiment: Secreted hK2 protein level (immunoassay), LAPC-4; format: cell-based, human; conditions: LAPC-4 cells, secreted hK2 in spent medium, treated 6 days
Protocol: as §3, §1, §2

hK2 [3] = experiment: Secreted hK2 protein level (immunoassay), LNCaP; format: cell-based, human; conditions: for pIC50: LNCaP cells, secreted hK2 in spent medium, treated 6 days
Protocol: as §3, §1, §2

PSA [4] = experiment: Secreted PSA protein level (immunoassay), LNCaP; format: cell-based, human; conditions: for pIC50: LNCaP cells, secreted PSA in spent medium, treated 6 days
Protocol: as §3, §1, §2

LAPC-4 cells = experiment: Growth response (MTS cell proliferation assay), LAPC-4; format: cell-based, human; conditions: MTS assay 6 days after treatment
Protocol: as §1, §2

[5] = test system: AR/ARE (hK2 3xARE-SV40 minimal promoter); experiment: hK2 3xARE luciferase reporter assay in LNCaP cells; conditions: P<0.05, 24 h
STAT3 [6] = experiment: STAT3 responsive element luciferase reporter in LNCaP cells; conditions: celecoxib 50 μM, nimesulide 100 μM, IL6 25-50 ng/ml, six hours
AR promoter (−1380/+577) = experiment: AR promoter-luciferase reporter assay in LNCaP cells; conditions: 1 nM Mib, 24 h, FIG. 3A
c-Jun = experiment: Western blot of c-Jun protein in LNCaP cells; format: cell-based, human; conditions: 24 h of treatment
Protocol: (§4) Cells were seeded at 1×10^5 cells/plate in 100 mm dishes. […] The cells were collected by centrifugation and washed with nimesulide for 15 or 24 h. The cells were collected by centrifugation and washed with cold PBS. Cell lysates were prepared in radioimmunoprecipitation assay buffer (PBS containing 1% NP40, 0.5% sodium deoxycholate, 0.1% SDS plus freshly added protease inhibitors, 100 μg/ml phenylmethylsulfonyl fluoride, 30 μl/ml aprotinin, and 1 mM sodium orthovanadate) and used for Western blot analysis. The sample filters were immunoblotted with c-Jun, phospho-c-Jun (Cell Signaling, Beverly, Mass.), AR (PharMingen, San Diego, Calif.), and FKBP51 (a gift from Dr. D. O. Toft; Mayo Clinic) specific primary antibodies and horseradish peroxidase-conjugated secondary antibodies and visualized by enhanced chemiluminescence (Amersham Pharmacia, Piscataway, N.J.).

6-kb PSA promoter = experiment: PSA promoter-luciferase reporter assay in LNCaP cells; conditions: concentration as low as 25 μM, 1 nM Mib, 24 h
FKBP51 = experiment: Western blot of androgen-up-regulated FKBP51 protein; format: cell-based, human; conditions: 1 nM Mib
Protocol: as §4

STAT3 [7] = experiment: Western blot of STAT3 and phosphorylated STAT3 in IL6-treated LNCaP cells; format: cell-based, human
Protocol: Experiments were then performed to determine if STAT3 is phosphorylated following exposure to IL6.
The same cells were treated with 50 μM of a potent phosphatase inhibitor, peroxovanadate (POV), to determine if the nimesulide-mediated inhibition of phosphorylation of STAT3 by IL6 was due to activation of one or more phosphatases. […] Therefore, the inhibitory effect of nimesulide on phosphorylation of STAT3 by IL6 may be caused by activation of one or more phosphatases, because the inhibitor could partially reverse the reduced phosphorylation of STAT3 by nimesulide. It was noted that POV alone had no effect on phosphorylation of STAT3 in the absence of IL6.

AR = experiment: Western blot of AR protein expression; format: cell-based, human; conditions: concentrations used in the transfections
Protocol: as §4

androgen receptor = experiment: IL6-activated hK2 ARE-SV40-pGL3 reporter, transient transfection; format: cell-based, human; conditions: celecoxib 50 μM, nimesulide 100 μM; IL6 50 ng/ml; androgen 1 nM
Protocol: Experiments were performed to determine whether or not IL6 increased expression of PSA and/or hK2.

[8] = FIG. 1, dose-dependent, LNCaP and LAPC-4 cells, 1 nM Mib

| Compound | pIC50 (LNCaP cells; Homo sapiens, 144 h) | pIC50 (PSA [1]; Homo sapiens, LAPC4, 144 h) | pIC50 (hK2 [2]; Homo sapiens, 144 h) | pIC50 (hK2 [3]; Homo sapiens, 144 h) | pIC50 (PSA [4]; Homo sapiens, 144 h) | pIC50 (LAPC-4 cells; Homo sapiens, LAPC4, 144 h) | further results |
| --- | --- | --- | --- | --- | --- | --- | --- |
| CC(=O)Oc1ccccc1C(=O)O [Aspirin] | < 3.00 | < 3.00 | < 3.00 | < 3.00 | < 3.00 | < 3.00 |  |
| CC(C)Cc1ccc(C(C)C(=O)O)cc1 (centres unmarked) [Ibuprofen] | < 3.00 | 3.06 | 3.10 | 3.07 | 3.11 | 3.13 |  |
| CC(C(=O)O)c1cccc(C(=O)c2ccccc2)c1 (centres unmarked) [Ketoprofen] | < 3.52 | < 3.52 | < 3.52 | < 3.52 | < 3.52 | < 3.52 |  |
| CC1=C(CC(=O)O)c2cc(F)ccc2/C1=C\c1ccc(S(C)(=O)=O)cc1 [Sulindac sulfone] |  |  |  |  |  |  | pIC50 (LNCaP cells): < 3.52; pIC50 (PSA [1]): 3.71; pIC50 (hK2 [2]): < 3.52; pIC50 (hK2 [3]): 4.01; pIC50 (PSA [4]): 3.69; pIC50 (LAPC-4 cells): 3.60 |
| CC1=C(CC(=O)O)c2cc(F)ccc2/C1=C\c1ccc([S+](C)[O-])cc1 (centres unmarked) [Sulindac] | < 3.52 | < 3.52 | < 3.52 | < 3.52 | < 3.52 | < 3.52 |  |
| peroxovanadate [POV] |  |  |  |  |  |  | phosphorylation of STAT3 in the absence of IL6 (STAT3 [7]; 50 μM POV alone): no effect |

More lines, main results first:

| pIC50 (LNCaP cells; Homo sapiens, 144 h) | pIC50 (PSA [1]; Homo sapiens, LAPC4, 144 h) | pIC50 (hK2 [2]; Homo sapiens, 144 h) | pIC50 (hK2 [3]; Homo sapiens, 144 h) | pIC50 (PSA [4]; Homo sapiens, 144 h) | Compound | pIC50 (LAPC-4 cells; Homo sapiens, LAPC4, 144 h) | further results |
| --- | --- | --- | --- | --- | --- | --- | --- |
| < 3.52 |  |  | 3.64 | 3.68 | CC(C(=O)O)c1cccc(Oc2ccccc2)c1 (centres unmarked) [Fenoprofen] |  |  |
|  | 4.54 | 4.36 | 4.53 | 4.70 | Cc1ccc(-c2cc(C(F)(F)F)nn2-c2ccc(S(N)(=O)=O)cc2)cc1 [Celecoxib] | 4.35 |  |
| 4.42 | 4.12 | 4.21 | 4.64 | 4.57 | CS(=O)(=O)Nc1ccc([N+](=O)[O-])cc1Oc1ccccc1 [Nimesulide] | 3.98 | AR/ARE-mediated gene expression (hK2 3xARE reporter) [5]: significantly reduced; STAT3-specific responsive element-mediated luciferase expression activated by IL6 (STAT3 [6]): inhibited; transcription activities of the AR promoter (−1380/+577) (AR promoter (−1380/+577)): repressed; c-Jun protein (c-Jun): strongly induced; androgen-induced PSA promoter activity (6-kb PSA promoter): significantly reduced; expression of hK2 (hK2 [3]; [8]): suppressed; expression of PSA (PSA [4]; [8]): suppressed; androgen-up-regulated FKBP51 protein expression (FKBP51): alleviated; phosphorylation of STAT3 by IL6 (STAT3 [7]; celecoxib 50 μM, nimesulide 100 μM, IL6 25-50 ng/ml): significantly suppressed; AR protein expression (AR): reduced; androgen receptor-mediated expression of the reporter gene activated by IL6 or IL6 plus androgen (androgen receptor): inhibit |
| < 3.52 | 3.63 | 3.66 | 3.55 | 3.69 | CC(C(=O)O)c1ccc(-c2ccccc2)c(F)c1 (centres unmarked) [Flurbiprofen] | 3.46 |  |
| < 3.52 | 3.69 | 3.68 | 3.57 | 3.65 | COc1ccc2c(c1)c(CC(=O)O)c(C)n2C(=O)c1ccc(Cl)cc1 [Indomethacin] | 3.77 |  |
| 3.71 | < 3.52 | < 3.52 | 3.42 | 3.52 | Cc1cnc(NC(=O)C2=C(O)c3ccccc3S(=O)(=O)N2C)s1 [Meloxicam] | 4.04 |  |
